# Patent US12097192B2 (Corcept Therapeutics Incorporated, priority 2019, dated 2024)
# Entries after “also recorded” stand apart in the source; their conditions may differ.
# How the values were obtained:
# [1] = system: Cushing's syndrome patients; assay: Cushing's syndrome patient study: ECG; format: in vivo, human; conditions: All Subjects
# Text: All patients gave informed consent before participating in any study-related procedures. […] The study protocol called for patient visits to the study site at screening, on Day 1 (baseline), Weeks 2, 4, 6, 8, 10, and 12, and after a 4-week follow-up period for Group 1. For Group 2, the protocol called for patient visits to the study site at screening, on Day 1 (baseline), Weeks 2, 4, 6, 8, 10, 12, 14, and 16, and after a 4-week follow-up period. Patient dosing will be done at home, except on days of study visits. […] The safety protocol also included assessments by physical examination findings, vital signs, ECG results, pregnancy tests, clinical laboratory test results (hematology and chemistry panels), adverse events (AEs), and concomitant medications. […] It ignores noncompliance, protocol deviations, withdrawal, and anything that happens after randomization. In contrast, per-protocol (PP) analysis refers to inclusion in the analysis of only those patients who strictly adhered to the protocol. The PP analysis provides an estimate of the true efficacy of an intervention, i.e., among those who completed the treatment as planned.
# [2] = system: Cushing's syndrome patients; assay: Cushing's syndrome patient study: safety and adverse events; format: in vivo, human
# Text: All patients gave informed consent before participating in any study-related procedures.
# The safety protocol also included assessments by physical examination findings, vital signs, ECG results, pregnancy tests, clinical laboratory test results (hematology and chemistry panels), adverse events (AEs), and concomitant medications.
# progesterone receptor = target: T1, progesterone receptor (Homo sapiens, UniProt P06401); assay: Progesterone receptor affinity / binding
# T1 sequence (P06401 1-933): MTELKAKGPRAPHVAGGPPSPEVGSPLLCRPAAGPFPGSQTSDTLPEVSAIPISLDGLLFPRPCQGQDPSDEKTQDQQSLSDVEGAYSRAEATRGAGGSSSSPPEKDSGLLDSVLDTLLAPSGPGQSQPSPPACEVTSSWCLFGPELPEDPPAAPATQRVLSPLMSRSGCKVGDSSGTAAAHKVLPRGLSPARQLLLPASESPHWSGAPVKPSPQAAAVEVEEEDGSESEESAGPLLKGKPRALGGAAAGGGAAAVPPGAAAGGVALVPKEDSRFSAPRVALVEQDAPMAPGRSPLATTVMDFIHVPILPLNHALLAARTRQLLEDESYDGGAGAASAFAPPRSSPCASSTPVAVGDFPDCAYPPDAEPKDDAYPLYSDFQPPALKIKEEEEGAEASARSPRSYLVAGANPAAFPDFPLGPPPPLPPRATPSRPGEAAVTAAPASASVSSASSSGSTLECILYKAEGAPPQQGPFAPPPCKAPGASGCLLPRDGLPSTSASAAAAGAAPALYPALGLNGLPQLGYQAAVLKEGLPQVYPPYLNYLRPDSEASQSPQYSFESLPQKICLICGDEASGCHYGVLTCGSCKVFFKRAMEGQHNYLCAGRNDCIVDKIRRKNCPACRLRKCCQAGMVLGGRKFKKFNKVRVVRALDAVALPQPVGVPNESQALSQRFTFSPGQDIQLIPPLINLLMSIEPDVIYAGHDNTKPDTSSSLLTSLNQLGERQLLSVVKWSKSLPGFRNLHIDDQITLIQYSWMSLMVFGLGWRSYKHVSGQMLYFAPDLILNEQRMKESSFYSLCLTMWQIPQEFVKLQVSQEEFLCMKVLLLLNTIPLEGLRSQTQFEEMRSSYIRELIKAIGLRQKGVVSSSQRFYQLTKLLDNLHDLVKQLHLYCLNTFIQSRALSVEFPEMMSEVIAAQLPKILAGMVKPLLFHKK
# [3] = Safety population, Group 1 (100-200 mg/day, 12 weeks)
# [4] = Safety population, Group 2 (250-400 mg/day, 16 weeks)
# [5] = mITT, Group 1 (100-200 mg/day, 12 weeks)
# [6] = mITT, Group 2 (250-400 mg/day, 16 weeks)
smiles,measurement,setting,value
"Cn1cc(S(=O)(=O)N2CCC3=Cc4c(cnn4-c4ccc(F)cc4)C[C@]3(C(=O)c3cc(C(F)(F)F)ccn3)C2)cn1 [relacorilant, (R)-(1-(4-fluorophenyl)-6-((1-methyl-1H-pyrazol-4-yl)sulfonyl)-4,4a,5,6,7,8-hexahydro-1H-pyrazolo[3,4-g]isoquinolin-4a-yl) (4-(trifluoromethyl)pyridin-2-yl)methanone]",ECG Median Heart Rate mean change from Baseline to Last Observed,[1]; [3],8 beats/min
same,"PR Interval, Aggregate mean change from Baseline to Last Observed",[1]; [3],2.72 ms
same,"QRS Duration, Aggregate mean change from Baseline to Last Observed",[1]; [3],-0.79 ms
same,"QT Interval, Aggregate mean change from Baseline to Last Observed",[1]; [3],-15.85 ms
same,"QTcB Interval, Aggregate mean change from Baseline to Last Observed",[1]; [3],5.58 ms
same,"QTcF Interval, Aggregate mean change from Baseline to Last Observed",[1]; [3],-1.98 ms
same,"RR Interval, Aggregate mean change from Baseline to Last Observed",[1]; [3],-93.14 ms
same,ECG Median Heart Rate mean change from Baseline to Last Observed,[1]; [4],5.23 beats/min
same,"PR Interval, Aggregate mean change from Baseline to Last Observed",[1]; [4],-4.2 ms
same,"QRS Duration, Aggregate mean change from Baseline to Last Observed",[1]; [4],-0.77 ms
same,"QT Interval, Aggregate mean change from Baseline to Last Observed",[1]; [4],-11.04 ms
same,"QTcB Interval, Aggregate mean change from Baseline to Last Observed",[1]; [4],2.28 ms
same,"QTcF Interval, Aggregate mean change from Baseline to Last Observed",[1]; [4],-2.54 ms
same,"RR Interval, Aggregate mean change from Baseline to Last Observed",[1]; [4],-56.67 ms
same,ECG Median Heart Rate mean change from Baseline to Last Observed,"[1]; Safety population, Overall",6.7 beats/min
same,"PR Interval, Aggregate mean change from Baseline to Last Observed","[1]; Safety population, Overall",-0.4 ms
same,"QRS Duration, Aggregate mean change from Baseline to Last Observed","[1]; Safety population, Overall",-0.78 ms
same,"QT Interval, Aggregate mean change from Baseline to Last Observed","[1]; Safety population, Overall",-13.6 ms
same,"QTcB Interval, Aggregate mean change from Baseline to Last Observed","[1]; Safety population, Overall",4.03 ms
same,"QTcF Interval, Aggregate mean change from Baseline to Last Observed","[1]; Safety population, Overall",-2.24 ms
same,"RR Interval, Aggregate mean change from Baseline to Last Observed","[1]; Safety population, Overall",-76.04 ms
same,ECG Median Heart Rate mean change from Baseline to Last Observed,[1]; [5],8 beats/min
same,"PR Interval, Aggregate mean change from Baseline to Last Observed",[1]; [5],2.72 ms
same,"QRS Duration, Aggregate mean change from Baseline to Last Observed",[1]; [5],-0.79 ms
same,"QT Interval, Aggregate mean change from Baseline to Last Observed",[1]; [5],-15.85 ms
same,"QTcB Interval, Aggregate mean change from Baseline to Last Observed",[1]; [5],5.58 ms
same,"QTcF Interval, Aggregate mean change from Baseline to Last Observed",[1]; [5],-1.98 ms
same,"RR Interval, Aggregate mean change from Baseline to Last Observed",[1]; [5],-93.14 ms
same,ECG Median Heart Rate mean change from Baseline to Last Observed,[1]; [6],5.23 beats/min
same,"PR Interval, Aggregate mean change from Baseline to Last Observed",[1]; [6],-4.2 ms
same,"QRS Duration, Aggregate mean change from Baseline to Last Observed",[1]; [6],-0.77 ms
same,"QT Interval, Aggregate mean change from Baseline to Last Observed",[1]; [6],-11.04 ms
same,"QTcB Interval, Aggregate mean change from Baseline to Last Observed",[1]; [6],2.28 ms
same,"QTcF Interval, Aggregate mean change from Baseline to Last Observed",[1]; [6],-2.54 ms
same,"RR Interval, Aggregate mean change from Baseline to Last Observed",[1]; [6],-56.67 ms
same,ECG Median Heart Rate mean change from Baseline to Last Observed,"[1]; mITT, Overall",6.7 beats/min
same,"PR Interval, Aggregate mean change from Baseline to Last Observed","[1]; mITT, Overall",-0.4 ms
same,"QRS Duration, Aggregate mean change from Baseline to Last Observed","[1]; mITT, Overall",-0.78 ms
same,"QT Interval, Aggregate mean change from Baseline to Last Observed","[1]; mITT, Overall",-13.6 ms
same,"QTcB Interval, Aggregate mean change from Baseline to Last Observed","[1]; mITT, Overall",4.03 ms
same,"QTcF Interval, Aggregate mean change from Baseline to Last Observed","[1]; mITT, Overall",-2.24 ms
same,"RR Interval, Aggregate mean change from Baseline to Last Observed","[1]; mITT, Overall",-76.04 ms
same,adverse effects of progesterone receptor antagonism,[2]; Cushing's syndrome patients,no adverse effects of progesterone receptor antagonism
same,drug induced hypokalemia,[2]; Cushing's syndrome patients,none of the patients suffered hypokalemia; also recorded: without any episodes of drug induced hypokalemia; also recorded: no patients developed drug induced hypokalemia; also recorded: no reported instances
same,drug induced vaginal bleeding,[2]; Cushing's syndrome patients,No drug-induced hypokalemia or vaginal bleeding; also recorded: no cases of drug induced vaginal bleeding; also recorded: no reported instances
same,drug-related serious adverse events,[2]; Cushing's syndrome patients,no drug-related serious adverse events
same,most common treatment-emergent adverse events (TEAEs),[2]; Cushing's syndrome patients,"back pain, edema, headache, and nausea"
same,tolerability,"[2]; Cushing's syndrome patients, up to 400 mg/day",generally well tolerated
same,serious TEAEs,[2]; all from the HD group,Five serious TEAEs were reported in 4 patients
same,endometrial hypertrophy developed on previous mifepristone,"[2]; one patient previously treated with mifepristone, during treatment with relacorilant",completely resolved
same,safety profile compared with mifepristone,[2]; patients with endogenous Cushing syndrome,significantly better
same,binding to the progesterone receptor,progesterone receptor,lack of binding to the progesterone receptor
same,progesterone receptor affinity,progesterone receptor; evidence from Cushing's syndrome patient study,no evidence of relacorilant having any progesterone receptor affinity
